# Experimental data as given in PubChem BioAssay AID1963841 (Molecular Pharmacology Branch, DTP, NCI, 2024).
# Tested on: 439559-082-T-J2-PDC spheroid viability
# Assay: Anticancer human tumor 439559-082-T-J2-PDC patient-derived colon adenocarcinoma cell line growth inhibition [POLQ]
# Details: spheroids with HUVEC and MSC; for IC50: curve of first compound; for viability, T/C: stronger effect = lower value
# Summary of the method: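 Patient-derived tumour cells were co-cultured with HUVEC and mesenchymal stem cells as multicellular spheroids at 37 °C. They were treated with POLQ inhibitors (novobiocin, ART-558, RP6685) alone or combined with other agents. Top concentrations were at or near clinical Cmax (otherwise 10 microM; SN-38 at 1 microM), decreasing in half-log steps.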
# [1] = second compound 0.0316 µM, first compound 0.00316 µM
# [2] = second compound 0.0316 µM, first compound 0.01 µM
# [3] = second compound 0.0316 µM, first compound 0.0316 µM
# [4] = second compound 0.0316 µM, first compound 0.1 µM
# [5] = second compound 0.1 µM, first compound 0.00316 µM
# [6] = second compound 0.1 µM, first compound 0.01 µM
# [7] = second compound 0.1 µM, first compound 0.0316 µM
# [8] = second compound 0.1 µM, first compound 0.1 µM
# [9] = second compound 0.316 µM, first compound 0.00316 µM
# [10] = second compound 0.316 µM, first compound 0.01 µM
# [11] = second compound 0.316 µM, first compound 0.0316 µM
# [12] = second compound 0.316 µM, first compound 0.1 µM
# [13] = second compound 1 µM, first compound 0.00316 µM
# [14] = second compound 1 µM, first compound 0.01 µM
# [15] = second compound 1 µM, first compound 0.0316 µM
# [16] = second compound 1 µM, first compound 0.1 µM
# [17] = second compound 3.16 µM, first compound 0.00316 µM
# [18] = second compound 3.16 µM, first compound 0.01 µM
# [19] = second compound 3.16 µM, first compound 0.0316 µM
# [20] = second compound 3.16 µM, first compound 0.1 µM
# [21] = second compound 10 µM, first compound 0.00316 µM
# [22] = second compound 10 µM, first compound 0.01 µM
# [23] = second compound 10 µM, first compound 0.0316 µM
# [24] = second compound 10 µM, first compound 0.1 µM
# [25] = second compound 0.0316 µM, first compound 0.316 µM
# [26] = second compound 0.0316 µM, first compound 1 µM
# [27] = second compound 0.1 µM, first compound 0.316 µM
# [28] = second compound 0.1 µM, first compound 1 µM
# [29] = second compound 0.316 µM, first compound 0.316 µM
# [30] = second compound 0.316 µM, first compound 1 µM
# [31] = second compound 1 µM, first compound 0.316 µM
# [32] = second compound 1 µM, first compound 1 µM
# [33] = second compound 3.16 µM, first compound 0.316 µM
# [34] = second compound 3.16 µM, first compound 1 µM
# [35] = second compound 10 µM, first compound 0.316 µM
# [36] = second compound 10 µM, first compound 1 µM
# 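Further: spheroids exposed to compounds for seven days before readout.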
# 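Wherever viability, T/C is given: 100% = DMSO vehicle control viability.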
smiles,measurement,setting,value
CC[C@@]1(O)C(=O)OCc2c1cc1n(c2=O)Cc2cc3c(CN(C)C)c(O)ccc3nc2-1 + Cc1cccc(N(C)C(=O)C2C(O)CCN2c2nc(C)cc(C(F)(F)F)c2C#N)c1,IC50,second compound 0.0316 µM,> 100 nM
same,IC50,second compound 0.1 µM,> 100 nM
same,IC50,second compound 0.316 µM,> 100 nM
same,IC50,second compound 1 µM,> 100 nM
same,IC50,second compound 3.16 µM,> 100 nM
same,IC50,second compound 10 µM,> 100 nM
same,"viability, T/C","second compound 0.0316 µM, first compound 0.000316 µM",94.1%
same,"viability, T/C","second compound 0.0316 µM, first compound 0.001 µM",101%
same,"viability, T/C",[1],96%
same,"viability, T/C",[2],97.2%
same,"viability, T/C",[3],92.2%
same,"viability, T/C",[4],85%
same,"viability, T/C","second compound 0.1 µM, first compound 0.000316 µM",113%
same,"viability, T/C","second compound 0.1 µM, first compound 0.001 µM",105%
same,"viability, T/C",[5],93.7%
same,"viability, T/C",[6],103%
same,"viability, T/C",[7],97.3%
same,"viability, T/C",[8],79.1%
same,"viability, T/C","second compound 0.316 µM, first compound 0.000316 µM",98.1%
same,"viability, T/C","second compound 0.316 µM, first compound 0.001 µM",112%
same,"viability, T/C",[9],94.9%
same,"viability, T/C",[10],89.8%
same,"viability, T/C",[11],84.9%
same,"viability, T/C",[12],83.4%
same,"viability, T/C","second compound 1 µM, first compound 0.000316 µM",104%
same,"viability, T/C","second compound 1 µM, first compound 0.001 µM",96.5%
same,"viability, T/C",[13],93.1%
same,"viability, T/C",[14],93%
same,"viability, T/C",[15],90.3%
same,"viability, T/C",[16],80.9%
same,"viability, T/C","second compound 3.16 µM, first compound 0.000316 µM",96.2%
same,"viability, T/C","second compound 3.16 µM, first compound 0.001 µM",101%
same,"viability, T/C",[17],98.9%
same,"viability, T/C",[18],93.5%
same,"viability, T/C",[19],89.9%
same,"viability, T/C",[20],76.5%
same,"viability, T/C","second compound 10 µM, first compound 0.000316 µM",93.2%
same,"viability, T/C","second compound 10 µM, first compound 0.001 µM",89.4%
same,"viability, T/C",[21],92.8%
same,"viability, T/C",[22],91.6%
same,"viability, T/C",[23],90.3%
same,"viability, T/C",[24],75%
CCc1c2c(nc3ccc(O)cc13)-c1cc3c(c(=O)n1C2)COC(=O)[C@]3(O)CC + Cc1cccc(N(C)C(=O)C2C(O)CCN2c2nc(C)cc(C(F)(F)F)c2C#N)c1,IC50,second compound 0.0316 µM,739 nM
same,IC50,second compound 0.1 µM,705 nM
same,IC50,second compound 0.316 µM,698 nM
same,IC50,second compound 1 µM,708 nM
same,IC50,second compound 3.16 µM,968 nM
same,IC50,second compound 10 µM,702 nM
same,"viability, T/C",[1],92.9%
same,"viability, T/C",[2],82.2%
same,"viability, T/C",[3],70.8%
same,"viability, T/C",[4],74.7%
same,"viability, T/C",[25],64%
same,"viability, T/C",[26],43.2%
same,"viability, T/C",[5],90.9%
same,"viability, T/C",[6],87%
same,"viability, T/C",[7],74.5%
same,"viability, T/C",[8],68.3%
same,"viability, T/C",[27],65.7%
same,"viability, T/C",[28],42.8%
same,"viability, T/C",[9],95.3%
same,"viability, T/C",[10],82.2%
same,"viability, T/C",[11],76.3%
same,"viability, T/C",[12],70.6%
same,"viability, T/C",[29],63%
same,"viability, T/C",[30],42.9%
same,"viability, T/C",[13],90.9%
same,"viability, T/C",[14],90.9%
same,"viability, T/C",[15],74%
same,"viability, T/C",[16],67.1%
same,"viability, T/C",[31],62.5%
same,"viability, T/C",[32],44.9%
same,"viability, T/C",[17],90.3%
same,"viability, T/C",[18],76.8%
same,"viability, T/C",[19],72.1%
same,"viability, T/C",[20],71%
same,"viability, T/C",[33],62.8%
same,"viability, T/C",[34],47.2%
same,"viability, T/C",[21],80.6%
same,"viability, T/C",[22],76.3%
same,"viability, T/C",[23],66.9%
same,"viability, T/C",[24],68.4%
same,"viability, T/C",[35],60.5%
same,"viability, T/C",[36],44.9%
Nc1ccn(C2OC(CO)C(O)C2(F)F)c(=O)n1 (stereo unspecified) + Cc1cccc(N(C)C(=O)C2C(O)CCN2c2nc(C)cc(C(F)(F)F)c2C#N)c1,IC50,second compound 0.0316 µM,923 nM
same,IC50,second compound 0.1 µM,952 nM
same,IC50,second compound 0.316 µM,829 nM
same,IC50,second compound 1 µM,676 nM
same,IC50,second compound 3.16 µM,802 nM
same,IC50,second compound 10 µM,829 nM
same,"viability, T/C",[3],77.8%
same,"viability, T/C",[4],71.7%
same,"viability, T/C",[25],60.6%
same,"viability, T/C",[26],49.9%
same,"viability, T/C","second compound 0.0316 µM, first compound 3.16 µM",37.5%
same,"viability, T/C","second compound 0.0316 µM, first compound 10 µM",30.6%
same,"viability, T/C",[7],85.4%
same,"viability, T/C",[8],76.9%
same,"viability, T/C",[27],63.8%
same,"viability, T/C",[28],48.5%
same,"viability, T/C","second compound 0.1 µM, first compound 3.16 µM",39.8%
same,"viability, T/C","second compound 0.1 µM, first compound 10 µM",32.1%
same,"viability, T/C",[11],82.5%
same,"viability, T/C",[12],75.8%
same,"viability, T/C",[29],63.3%
same,"viability, T/C",[30],47.5%
same,"viability, T/C","second compound 0.316 µM, first compound 3.16 µM",35.4%
same,"viability, T/C","second compound 0.316 µM, first compound 10 µM",29.6%
same,"viability, T/C",[15],83.2%
same,"viability, T/C",[16],76.1%
same,"viability, T/C",[31],61.3%
same,"viability, T/C",[32],43.1%
same,"viability, T/C","second compound 1 µM, first compound 3.16 µM",37.7%
same,"viability, T/C","second compound 1 µM, first compound 10 µM",30.9%
same,"viability, T/C",[19],79.8%
same,"viability, T/C",[20],69.3%
same,"viability, T/C",[33],59.4%
same,"viability, T/C",[34],47.1%
same,"viability, T/C","second compound 3.16 µM, first compound 3.16 µM",38.3%
same,"viability, T/C","second compound 3.16 µM, first compound 10 µM",31.4%
same,"viability, T/C",[23],80.3%
same,"viability, T/C",[24],70.6%
same,"viability, T/C",[35],57.1%
same,"viability, T/C",[36],49.5%
same,"viability, T/C","second compound 10 µM, first compound 3.16 µM",40%
same,"viability, T/C","second compound 10 µM, first compound 10 µM",35%
